Measurements taken from US9663478B2, “Benzotriazine oxides as drugs targeting Mycobacterium tuberculosis” (priority 2011, dated 2017).

What was measured:
[1] = test system: Enterobacter aerogenes SRI Collection; experiment: Spectrum of antimicrobial activity; format: cell-based
[2] = test system: Acinetobacter baumannii ATCC 17978; experiment: Spectrum of antimicrobial activity; format: cell-based
[3] = test system: Enterococcus fecalis ATCC 51575; experiment: Spectrum of antimicrobial activity; format: cell-based
[4] = test system: Enterococcus faecium ATCC 19434; experiment: Spectrum of antimicrobial activity; format: cell-based
[5] = test system: Moraxella catarrhalis ATCC 25238; experiment: Spectrum of antimicrobial activity; format: cell-based
Vero cells = experiment: Cytotoxicity against Vero cells (Cell Titer-Glo); details: 72 h; Tables 1-4 and text

SMILES: [O-][n+]1nc(N2CCCC2)[n+]([O-])c2cc3c(cc21)CCC3 [Compound 20q, 3-(pyrrolidin-1-yl)-7,8-dihydro-6H-indeno[5,6-e][1,2,4]triazine 1,4-dioxide]
- Antimicrobial activity, Enterobacter aerogenes [1]: >32 µg/mL
- Antimicrobial activity, Acinetobacter baumannii [2]: >32 µg/mL
- Antimicrobial activity, Enterococcus fecalis [3]: >32 µg/mL
- Antimicrobial activity, Enterococcus faecium [4]: >32 µg/mL
- Antimicrobial activity, Moraxella catarrhalis [5]: 10 µg/mL
- Vero Tox CC50 (Vero cells): 25 µg/mL
